The record followed here is patent US12637448B2, “Tricyclic compounds and use thereof” (HELIOEAST PHARMACEUTICAL CO., LTD, priority 2020, dated 2026).

In general, bioavailability refers to the share of a dose that reaches the circulation, judged against a reference dose that is usually intravenous. A word on the Emax: it is the greatest response seen or fitted, relative to the assay's reference. As a reminder, the EC50 is the concentration that produces a half-maximal response.

Series [1] can be described thus: Pharmacokinetic evaluation in SD rats (intravenous injection and oral administration). Format: in vivo. The following applies: Sprague-Dawley, plasma, SD rat, male. The method, then: Test Embodiment 2: Pharmacokinetic Evaluation of Compound in Rats
Experimental Objective: To Test the Pharmacokinetics of the Compound in SD Rats
Sprague Dawley rat (male, 200-300 g, 7-9 weeks old, Shanghai SLAC)
(§1) A standard protocol was used to test the pharmacokinetic characteristics of rodents after intravenous injection and oral administration of the compound. In the experiment, the candidate compound was prepared into a clear solution, and administrated to rats by single intravenous injection and oral administration. The vehicle for intravenous injection was a 5:95 DMSO and 10% hydroxypropyl β-cyclodextrin aqueous solution, and the vehicle for oral administration was a 0.5% w/v methylcellulose and 0.2% w/v tween 80 aqueous solution. Whole blood samples within 24 hours were collected, centrifuged at 3000 g for 15 minutes, and the supernatant was separated to obtain plasma samples. Four times the volume of acetonitrile solution containing internal standard was added thereto to precipitate protein. The mixture was centrifuged, and the supernatant was taken, and an equal volume of water was added thereto. Then the mixture was centrifuged and the supernatant was taken for injection. The blood drug concentration was quantitatively analyzed by LC-MS/MS analysis method, and pharmacokinetic parameters, such as peak concentration, clearance rate, tissue distribution, half-life, area under the drug-time curve and bioavailability, were calculated.

The target in series [2] is T1, S1PR1 (Homo sapiens, UniProt P21453).
T1 construct: expressed in transfected cells
As to the kind of experiment: In vitro S1PR1 agonistic activity (PathHunter cell line, chemiluminescence). Format: cell-based. To be noted: for Emax: % activity relative to maximum control ligand; for EC50: agonist mode, 90-180 minutes at 37° C. The procedure:
Test Embodiment 1: In Vitro Evaluation of the Agonistic Activity of the Compounds of the Present Disclosure on S1PR1
Experimental Objective: To Detect the Agonistic Activity of Compounds on S1PR1
• 1. A PathHunter cell line was thawed according to standard procedures; • 2. the cells were inoculated in a 20 μL 384-well microplate and incubated at 37° C. for appropriate time. II. Agonist • 1. For agonist determination, cells were incubated with samples to be tested to induce a reaction; • 2. a storage solution to be tested was 5-fold diluted into a buffer; • 3. 5 μL of the 5-fold dilution was added to the cells and incubated at 37° C. for 90-180 minutes. The vehicle concentration was 1%. III. Signal Detection • 1. 12.5 μL or 15 μL of PathHunter detection reagent at a volume ratio of 50% was added at a time, and then incubated at room temperature for 1 hour to generate a detection signal; • 2. the microplate was read with a PerkinElmer Envision™ instrument for chemiluminescent signal detection. IV. Data Analysis • 1. Activity analysis of the compound was carried out by using CBIS data analysis kit (ChemInnovation, CA); • 2. Calculation formula: % activity=100%×(average test sample RLU−average vehicle RLU)/(average maximum control ligand−average vehicle RLU)

The nature of series [3]: Pharmacokinetic evaluation in CD-1 mice (intravenous injection and oral administration). Format: in vivo. To be noted: mouse, male, plasma. The method, then: Test Embodiment 3: Pharmacokinetic Evaluation of Compound in Mice
Experimental Objective: To Test the Pharmacokinetics of the Compound in CD-1 Mice
CD-1 mice (male, 20-40 g, 6-10 weeks old, Shanghai BK)
as §1, with “The” for “A”, “two mice” for “rats”, “3200” for “3000”, “10” for “15”, “concentration, tissue distribution,” for “concentration,”, “rate,” for “rate, tissue distribution,”

T1 sequence (P21453 whole entry): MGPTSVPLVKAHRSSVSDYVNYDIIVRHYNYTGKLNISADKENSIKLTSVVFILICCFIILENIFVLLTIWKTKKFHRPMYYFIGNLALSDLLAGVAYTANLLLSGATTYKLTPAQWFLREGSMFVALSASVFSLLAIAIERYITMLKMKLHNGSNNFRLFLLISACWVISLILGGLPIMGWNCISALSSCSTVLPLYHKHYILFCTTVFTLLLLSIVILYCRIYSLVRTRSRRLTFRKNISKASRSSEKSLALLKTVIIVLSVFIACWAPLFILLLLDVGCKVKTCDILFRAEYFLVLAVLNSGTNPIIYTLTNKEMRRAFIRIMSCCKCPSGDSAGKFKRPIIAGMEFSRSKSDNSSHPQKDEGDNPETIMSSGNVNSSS

Consider `CC(C)Oc1ncc(-c2nc(-c3cccc4c3CCC43CC(=O)N(CCO)C3)no2)cc1C#N` (centres unmarked) [Compound 1], for which the AUC(0-t) was 35.5 µM·h in series [1] (PO 3.0 mg/kg, read-out: Area under the drug-time curve AUC0-last PO) and 21.3 µM·h in series [3] (PO 2.0 mg/kg, read-out: Area under the drug-time curve AUC0-last PO). For the same compound, the half-life is 7.22 h in series [1] (PO 3.0 mg/kg, read-out: Half-life T1/2 (PO) (converted)) and 3.5 h in series [3] (PO 2.0 mg/kg, read-out: Half-life T1/2 (PO) (converted)). Besides, the clearance in series [1] (intravenous 1.0 mg/kg / oral 3.0 mg/kg, read-out: Clearance rate CL) was 1.66 mL/min/kg; in series [3] (intravenous 0.5 mg/kg / oral 2.0 mg/kg, read-out: Clearance rate CL) it was 3.42 mL/min/kg. Further, the Vd came out at 1.18 L/kg in series [1] (intravenous 1.0 mg/kg / oral 3.0 mg/kg, read-out: Tissue distribution Vdss) and 0.902 L/kg in series [3] (intravenous 0.5 mg/kg / oral 2.0 mg/kg, read-out: Tissue distribution Vdss). In addition, the bioavailability was found to be 71.9% in series [1] (intravenous 1.0 mg/kg, oral 3.0 mg/kg, read-out: Bioavailability F) and 100% in series [3] (intravenous 0.5 mg/kg, oral 2.0 mg/kg, read-out: Bioavailability F). Also, the Cmax worked out at 3100 ng/mL in series [1] (intravenous 1.0 mg/kg / oral 3.0 mg/kg, read-out: Peak concentration Cmax) and 2830 ng/mL in series [3] (intravenous 0.5 mg/kg / oral 2.0 mg/kg, read-out: Peak concentration Cmax). In series [2], this compound displayed a maximum response (Emax) of 99.3%. This compound also yielded an EC50 in series [2] of 0.134 nM.

In series [2], `CC(C)Oc1ncc(-c2nc(-c3cccc4c3CCC43CC(=O)N(CCO)C3)no2)cc1Br` (centres unmarked) [Compound 3] registered a maximal effect (Emax) of 62.8% and an EC50 of 4.46 nM.

In series [2], `CC(C)Oc1ncc(-c2nsc(-c3cccc4c3CCC43CC(=O)N(CCO)C3)n2)cc1C#N` (centres unmarked) [Compound 4] showed an Emax of 67.6% and a 50% effective concentration (EC50) of 20.9 nM.

Turning to `CC(C)Oc1ncc(-c2ncc(-c3cccc4c3CCC43CC(=O)N(CCO)C3)o2)cc1C#N` (centres unmarked) [Compound 5], in series [2], the Emax worked out at 63.5% and the concentration giving a half-maximal response (EC50) came to 24.3 nM.

In series [2], `CC(C)Oc1ncc(-c2ncc(-c3cccc4c3CCC43CC(=O)N(CCO)C3)cn2)cc1C#N` (centres unmarked) [Compound 6] returned a maximal response (Emax) of 78.5% and a concentration for a half-maximal effect (EC50) of 7.1 nM.

For `CC(C)Oc1ncc(-c2ncc(-c3cccc4c3CCC43CC(=O)N(CCO)C3)s2)cc1C#N` (centres unmarked) [Compound 7], in series [2], the maximum response (Emax) came to 88.1% and the midpoint of the response, the EC50, lay at 2.84 nM.

In series [2], `CC(C)Oc1ncc(-c2nc(-c3cccc4c3CCC43CC(=O)N(CC(=O)O)C3)no2)cc1C#N` (centres unmarked) [Compound 8] came in with an Emax of 110% and an EC50 of 1.25 nM.

In series [2], `CC(C)Oc1ncc(-c2nc(-c3cccc4c3CCC43CC(=O)N(CCC(=O)O)C3)no2)cc1C#N` (centres unmarked) [Compound 9] came in with a maximum response (Emax) of 104% and an EC50 of 0.613 nM.

On to `CC(C)Oc1ncc(-c2nc(-c3cccc4c3CCC43CCN(C4CC(C(=O)O)C4)C3)no2)cc1C#N` (centres unmarked) [Compound 10], for which, in series [2], the maximal response (Emax) was found to be 92% and it took 0.474 nM to reach a half-maximal effect (EC50).

In series [2], `CC(C)Oc1ncc(-c2nnc(-c3cccc4c3CCC43CC(=O)N(CCO)C3)s2)cc1C#N` (centres unmarked) [Compound 11] came in with an Emax of 104% and a concentration giving a half-maximal response (EC50) of 6.12 nM.
